Measurements published in patent US8338414B2, “Immunosuppressive agent and anti-tumor agent comprising heterocyclic compound as active ingredient” (Zenyaku Kogyo KabushikiKaisha, priority 2005, dated 2012).
Read-outs that look alike come from different tables or passages of the source.

Tests used:
[1] = test system: Rabbit synoviocytes HIG-82; assay: Inhibition assay for proliferation of rabbit synoviocyte; assay type: cell-based; conditions: Oryctolagus cuniculus, 72 h; HIG-82, 3 days, Alamar Blue
Experimental: Rabbit synoviocytes HIG-82 suspended in HAM medium (containing 10% fetal bovine serum, 25 mM HEPES, and 0.1 mg/mL kanamycin) (with 4×10^4 cells/mL) were seeded in wells of a 96 well plate at 0.135 mL per well. Then, 15 μL of each of serial dilutions of test substances was added to a respective well, and incubated under conditions of carbon dioxide 5% at a temperature 37° C. Alamar Blue solution was added at 50 μL per well on day 0 and day 3, and incubated for one day, and thereafter fluorescence intensity at 590 nm using an excitation wavelength of 530 nm was determined by Cytoflour 4000 (Applied Biosystems).

[2] = test system: THP-1 cells; assay: Proliferation inhibitory activity on hematologic neoplasm cells, THP-1; assay type: cell-based; conditions: Homo sapiens, THP-1, 72 h; 3 days, Alamar Blue
Experimental: (§1) Daudi cells (5×10^5 cells/mL), Jurkat cells (5×10^5 cells/mL), THP-1 cells (5×10^5 cells/mL), U 937 cells (5×10^5 cells/mL), and HL 60 cells (5×10^5 cells/mL) suspended in RPMI 1640 medium (containing 10% fetal bovine serum, 10 mM HEPES, 1 mM pyruvic acid, 4.5 g/L glucose, 100 units/mL penicillin, and 0.1 mg/mL streptomycin) were seeded in 96 well plates at a capacity of 0.135 mL per well. Serial dilutions of test substances were added to respective wells at 15 μL/well, and incubated under conditions of carbon dioxide 5% at 37° C. for 3 days. Thereafter, Alamar Blue solution was added at 50 μL, and after incubation for one day, the fluorescence intensity at 590 nm using an excitation wavelength of 530 nm was determined by Cytoflour 4000 (Applied Biosystems).

[3] = test system: Jurkat cells; assay: Proliferation inhibitory activity on hematologic neoplasm cells, Jurkat; assay type: cell-based; conditions: Homo sapiens, Jurkat, 72 h; 3 days, Alamar Blue
Experimental: as §1

[4] = test system: mouse spleen cells; assay: Proliferation inhibition assay for mouse spleen cells; assay type: cell-based; conditions: 72 h, 3 days, Alamar Blue
Experimental: Spleen cells (2×10^6 cells/mL) prepared from C57BL/6N female mice (8 weeks old, purchased from Charles River Laboratories Japan Inc.) were suspended in RPMI 1640 medium (containing 10% fetal bovine serum, 10 mM HEPES, 1 mM pyruvic acid, 4.5 g/L glucose, 100 units/mL penicillin, and 0.1 mg/mL streptomycin), and seeded in wells of a 96 well plate at 0.225 mL per well. Serial dilutions of test substances were added to respective wells, and then concanavalin A (Con A, 3 μg/mL), lipopolysaccharide (LPS, 100 μg/mL), or an anti-mouse IgM antibody (100 μg/mL) were added. Thereafter, they were incubated under conditions of carbon dioxide 5% at a temperature 37° C. for 3 days. Next, Alamar Blue solution was added at 50 μL per 150 μL, and after having cultured for one day, the fluorescence intensity at 590 nm using an excitation wavelength of 530 nm was determined by Cytoflour 4000 (Applied Biosystems).

[5] = test system: HL 60 cells; assay: Proliferation inhibitory activity on hematologic neoplasm cells, HL60; assay type: cell-based; conditions: Homo sapiens, HL-60, 72 h; 3 days, Alamar Blue
Experimental: as §1

[6] = test system: Daudi cells; assay: Proliferation inhibitory activity on hematologic neoplasm cells, Daudi; assay type: cell-based; conditions: Homo sapiens, Daudi, 72 h; 3 days, Alamar Blue
Experimental: as §1

[7] = test system: human peripheral blood mononuclear cells; assay: Proliferation inhibition assay for human peripheral blood mononuclear cells; assay type: cell-based; conditions: Homo sapiens, 72 h; PBMC, anti-CD3 and anti-CD28 antibody, 3 days, Alamar Blue
Experimental: 4 mL of blood collected from healthy subjects was placed on 3 mL of MonoPoly Resolving Medium, and after centrifugation, the mononuclear cell (PBMC) fraction was collected. After washing with saline, PBMC (1×10^5 cells/mL) was suspended in RPMI 1640 medium (containing 10% fetal bovine serum, 10 mM HEPES, 1 mM pyruvic acid, and 4.5 g/L glucose). Next, after having added an anti-CD28 antibody (1 μg/mL) to the suspension, they were seeded on an anti-human CD3 T cell activation plate (BD Bioscience) at a capacity of 0.135 mL per well. Then, serial dilutions of test substances were added to respective wells, and incubated under conditions of carbon dioxide 5% at a temperature 37° C. After 3 days, Alamar Blue solution was added at 50 μL per well, and after incubation for one day, a fluorescence intensity at 590 nm using an excitation wavelength of 530 nm was determined by Cytoflour 4000 (Applied Biosystems).

[8] = test system: allogeneic mixed lymphocyte reaction; assay: Allogeneic mixed lymphocyte reaction; assay type: cell-based, mouse; conditions: Mus musculus, Lymphocyte; C57BL/6N spleen stimulator cells, BALB/c lymph node responder cells, 86 hours, BrdU
Experimental: Spleen cells prepared from C57BL/6N female mice (8-10 weeks old, purchased from Charles River Laboratories Japan Inc.) and peripheral lymph node mononuclear cells prepared from BALB/c female mice (8-10 weeks old, purchased from Charles River Laboratories Japan Inc.) were used as stimulator cells and responder cells, respectively. The respective cells were suspended in RPMI 1640 medium (containing 10% fetal bovine serum, 100 units/mL penicillin, and 0.1 mg/mL streptomycin) (with 2×10^6 cells/mL).

[9] = test system: U 937 cells; assay: Proliferation inhibitory activity on hematologic neoplasm cells, U937; assay type: cell-based; conditions: Homo sapiens, U-937, 72 h; 3 days, Alamar Blue
Experimental: as §1

[10] = test system: fulminant hepatitis; assay: Fulminant hepatitis model (galactosamine and LPS); assay type: in vivo, mouse; conditions: BALB/c mice, galactosamine 800 mg/kg and LPS 110 μg/kg i.p.
Experimental: BALB/c male mice (7 weeks old, purchased from Charles River Laboratories Japan Inc.) were used in the experiment. After having orally administered the test substances suspended in 5% HPC, galactosamine (800 mg/kg) and LPS (110 μg/kg) were intraperitoneally administered. Then, survival rates at 72 hours after administration were obtained.

[11] = test system: A549 lung cancer cells; assay: Proliferation inhibitory activity on solid tumor cells, A549; assay type: cell-based; conditions: Homo sapiens, 72 hours
Experimental: (§2) Used in the test were MCF-7 cells which were established from human breast cancer and were cultured routinely under the conditions of 37° C. and 5% CO2, in MEM medium supplemented with 10% fetal calf serum, 25 mM of HEPES and 0.1 mg/ml kanamycin. The MCF-7 cells in a logarithmic growth phase were treated with trypsin/EDTA to prepare single cell suspension adjusted to 4.0×10^4 cells/ml in MEM medium (supplemented with 10% fetal calf serum, 25 mM of HEPES and 0.1 mg/ml kanamycin). Test compounds were dissolved in DMSO and diluted with RPMI 1640 medium (supplemented with 10% fetal calf serum, 25 mM of HEPES and 0.1 mg/ml kanamycin) to a concentration of […] to 2.0×10^−9M.
(§3) The cell suspension was filled in a 96-wells microplate at a rate of 0.1 ml per well and was cultured for 24 hours so as to make the cells to adhere to the microplate. Then, it was added with 0.1 ml of the sample solution and cultured at 37° C. for 72 hours in 5% CO2.
(§4) 50% Growth inhibition concentrations (GI50 μM) were calculated from growth inhibitions at various sample concentrations.
(§5) In the foregoing, when the cells other than MCF-7 are used, instead of adding 10% fetal bovine serum, the following media were used, and the following single cell suspensions were prepared. • PC-3 prostate cancer cells: 10% fetal bovine serum in F12K medium, single cell suspension of 2×10^4 cells; • A549 lung cancer cells: 10% fetal bovine serum in DMEM medium, single cell suspension of 1.5×10^4 cells; • WiDr colon cancer cells: 10% fetal bovine serum in MEM medium, single cell suspension of 3×10^4 cells; • B16F10 melanoma cells: 10% fetal bovine serum in RPMI 1640 medium, single cell suspension of 1×10^4 cells;

[12] = test system: PC-3 prostate cancer cells; assay: Proliferation inhibitory activity on solid tumor cells, PC-3; assay type: cell-based; conditions: 72 hours
Experimental: as §2, §3, §4, §5

[13] = test system: MCF-7 cells; assay: Proliferation inhibitory activity on solid tumor cells, MCF-7; assay type: cell-based; conditions: Homo sapiens, MCF7; 72 hours
Experimental: as §2, §3, §4

[14] = test system: WiDr colon cancer cells; assay: Proliferation inhibitory activity on solid tumor cells, WiDr; assay type: cell-based; conditions: Homo sapiens, 72 hours
Experimental: as §2, §3, §4, §5

[15] = test system: B16F10 melanoma cells; assay: Proliferation inhibitory activity on solid tumor cells, B16F10; assay type: cell-based; conditions: Mus musculus, B16-F10; 72 hours
Experimental: as §2, §3, §4, §5

[16] = LPS 100 μg/mL, read-out: Inhibition of LPS response
[17] = concanavalin A 3 μg/mL, read-out: Inhibition of Con A response
[18] = anti-mouse IgM antibody 100 μg/mL, read-out: Inhibition of Anti-IgM antibody response

OCc1nc2ccccc2n1-c1nc(N2CCOCC2)nc(N2CCOCC2)n1 [Compound 3, 4,6-Dimorpholino-2-(2-hydroxymethylbenzimidazol-1-yl)-1,3,5-triazine]
IC50 [1]: 1.78 µM | IC50 [2]: 0.135 µM | IC50 [3]: 3.27 µM | IC50 [4, 16]: 0.1 to 10 µM | IC50 [4, 17]: 0.1 to 10 µM | IC50 [5]: 3.16 µM | IC50 [6]: 0.379 µM | IC50 [7]: 1.13 µM | IC50 [8]: 0.6 µM | melting point: 208 to 210 °C (dec.) | IC50 [9]: 4.14 µM

Nc1nc2ccccc2n1-c1nc(N2CCOCC2)nc(N2CCOCC2)n1 [Compound 6, 2-(2-Aminobenzimidazol-1-yl)-4,6-dimorpholino-1,3,5-triazine]
IC50 [1]: 6.35 µM | IC50 [2]: 5.54 µM | IC50 [3]: 6.62 µM | IC50 [4, 16]: 0.1 to 10 µM | IC50 [4, 18]: 0.1 to 10 µM | IC50 [4, 17]: 0.1 to 10 µM | IC50 [5]: > 10 µM | IC50 [6]: 0.803 µM | Survival Rate after 72 Hours ([10]; 100 mg/kg oral): 40% | IC50 [7]: 2.08 µM | IC50 [8]: 3.63 µM | IC50 [9]: > 10 µM

Cc1cccc2c1nc(C(F)F)n2-c1nc(N2CCOCC2)nc(N2CCOCC2)n1 [Compound 10, 2-(2-Difluoromethyl-4-methylbenzimidazol-1-yl)-4,6-dimorpholino-1,3,5-triazine]
IC50 [1]: 6.51 µM | IC50 [2]: 0.794 µM | IC50 [3]: > 10 µM | IC50 [4, 16]: 10 to 100 µM | IC50 [4, 18]: 0.1 to 10 µM | IC50 [4, 17]: 0.1 to 10 µM | IC50 [5]: 1.79 µM | IC50 [6]: 0.16 µM | IC50 [7]: 0.825 µM | IC50 [8]: 0.344 µM | melting point: 259 to 260 °C | IC50 [9]: > 10 µM

Oc1cccc2c1nc(C(F)F)n2-c1nc(N2CCOCC2)nc(N2CCOCC2)n1 [Compound 15, 2-(2-Difluoromethyl-4-hydroxybenzimidazol-1-yl)-4,6-dimorpholino-1,3,5-triazine]
IC50 [1]: 0.0856 µM | IC50 [2]: 0.0454 µM | IC50 [3]: 0.116 µM | IC50 [5]: 0.0358 µM | IC50 [6]: 0.00492 µM | Survival Rate after 72 Hours ([10]; 50 mg/kg oral): 17% | Survival Rate after 72 Hours ([10]; 100 mg/kg oral): 0% | IC50 [7]: 0.00291 µM | IC50 [8]: 0.0421 µM | IC50 [9]: 0.217 µM

Oc1cccc2c1nc(C(F)F)n2-c1nc(N2CCOCC2)cc(N2CCOCC2)n1 [Compound 18, 2-(2-Difluoromethyl-4-hydroxybenzimidazol-1-yl)-4,6-dimorpholinopyrimidine]
Survival Rate after 72 Hours ([10]; 50 mg/kg oral): 50% | Survival Rate after 72 Hours ([10]; 100 mg/kg oral): 80%

O=C(Cc1ccccc1)N1CCN(c2nc(N3CCOCC3)nc(-n3c(C(F)F)nc4ccccc43)n2)CC1 [Compound 29, 2-(2-Difluoromethylbenzimidazol-1-yl)-4-(4-benzylcarbonylpiperazin-1-yl)-6-morpholino-1,3,5-triazine]
GI50 [11]: 1.32 µM | GI50 [12]: 0.32 µM | GI50 [13]: 0.7 µM | GI50 [14]: 2.58 µM | melting point: 178 to 181 °C | GI50 [15]: 3.93 µM

CC(=O)CN1CCN(c2nc(N3CCOCC3)nc(-n3c(C(F)F)nc4ccccc43)n2)CC1 [Compound 30, 4-(4-Acetonylpiperazin-1-yl)-2-(2-difluoromethylbenzimidazol-1-yl)-6-morpholino-1,3,5-triazine]
GI50 [11]: 1.52 µM | GI50 [12]: 0.77 µM | GI50 [13]: 0.41 µM | GI50 [14]: 3.74 µM | melting point: 79 to 81 °C | GI50 [15]: 3.32 µM

O=C(c1ccco1)N1CCN(c2nc(N3CCOCC3)nc(-n3c(C(F)F)nc4ccccc43)n2)CC1 [Compound 31, 2-(2-Difluoromethylbenzimidazol-1-yl)-4-[4-(2-furoyl)piperazin-1-yl]-6-morpholino-1,3,5-triazine]
GI50 [11]: 0.65 µM | GI50 [12]: 0.32 µM | GI50 [13]: 0.05 µM | GI50 [14]: 1.43 µM | melting point: 220 to 222 °C | GI50 [15]: 1.51 µM

CN(C)C(=O)N1CCN(c2nc(N3CCOCC3)nc(-n3c(C(F)F)nc4ccccc43)n2)CC1 [Compound 32, 2-(2-Difluoromethylbenzimidazol-1-yl)-4-[4-(N,N-dimethylcarbamoyl)piperazin-1-yl]-6-morpholino-1,3,5-triazine]
GI50 [11]: 0.83 µM | GI50 [12]: 0.38 µM | GI50 [13]: < 0.04 µM | GI50 [14]: 1.33 µM | melting point: 203 to 205 °C | GI50 [15]: 2.14 µM

OCCCN1CCN(c2nc(N3CCOCC3)nc(-n3c(C(F)F)nc4ccccc43)n2)CC1 [Compound 34, 2-(2-Difluoromethylbenzimidazol-1-yl)-4-[4-(3-hydroxypropyl)piperazin-1-yl]-6-morpholino-1,3,5-triazine]
GI50 [11]: 1.38 µM | GI50 [12]: 0.55 µM | GI50 [13]: 0.14 µM | GI50 [14]: 2.07 µM | GI50 [15]: 2.91 µM
